According to ChEMBL document CHEMBL1127385, “Synthesis and diuretic activity of alkyl- and arylguanidine analogs of N,N'-dicyclohexyl-4-morpholinecarboxamidine in rats and dogs” (J Med Chem, 1994):

Legend:
Canis familiaris [1] = experiment: Total electrolytic excretion of potassium in urine of dogs after peroral administration of 3.40 uM/Kg of drug; assay type: ADME, organism-based, Canis lupus familiaris; conditions: dog, in vivo, po
Rattus norvegicus [2] = experiment: Total electrolytic excretion of potassium in urine of rats after peroral administration of 0 uM/Kg of drug; assay type: ADME, organism-based; conditions: in vivo, po
Rattus norvegicus [3] = experiment: Total electrolytic excretion of potassium in urine of rats after peroral administration of 1.01 uM/Kg of drug; assay type: ADME, organism-based; conditions: in vivo, po
Rattus norvegicus [4] = experiment: Total electrolytic excretion of chlorine in urine of rats after peroral administration of 3.40 uM/Kg of drug; assay type: ADME, organism-based; conditions: in vivo, po
Rattus norvegicus [5] = experiment: Total electrolytic excretion of chlorine in urine of rats after peroral administration of 0 uM/Kg of drug; assay type: ADME, organism-based; conditions: in vivo, po
Canis familiaris [6] = experiment: Total electrolytic excretion of sodium in urine of dogs after peroral administration of 3.40 uM/Kg of drug; assay type: ADME, organism-based, Canis lupus familiaris; conditions: dog, in vivo, po
Rattus norvegicus [7] = experiment: Total electrolytic excretion of sodium in urine of rats after peroral administration of 0 uM/Kg of drug; assay type: ADME, organism-based; conditions: in vivo, po
Rattus norvegicus [8] = experiment: Total electrolytic excretion of sodium in urine of rats after peroral administration of 1.01 uM/Kg of drug; assay type: ADME, organism-based; conditions: in vivo, po
Rattus norvegicus [9] = experiment: Total electrolytic excretion of potassium in urine of rats after peroral administration of 34.0 uM/Kg of drug; assay type: ADME, organism-based; conditions: in vivo, po
Canis familiaris [10] = experiment: Total electrolytic excretion of chlorine in urine of dogs after peroral administration of 3.40 uM/Kg of drug; assay type: ADME, organism-based, Canis lupus familiaris; conditions: dog, in vivo, po
Rattus norvegicus [11] = experiment: Total electrolytic excretion of potassium in urine of rats after peroral administration of 3.40 uM/Kg of drug; assay type: ADME, organism-based; conditions: in vivo, po
Rattus norvegicus [12] = experiment: Total electrolytic excretion of chlorine in urine of rats after peroral administration of 34.0 uM/Kg of drug; assay type: ADME, organism-based; conditions: in vivo, po
Rattus norvegicus [13] = experiment: Tested for the diuretic activity by measuring the urinary volume after peroral administering 34.0 uM/Kg of drug in rats; assay type: ADME, organism-based, Urine; conditions: in vivo, po
Rattus norvegicus [14] = experiment: Total electrolytic excretion of sodium in urine of rats after peroral administration of 34.0 uM/Kg of drug; assay type: ADME, organism-based; conditions: in vivo, po
Rattus norvegicus [15] = experiment: Total electrolytic excretion of sodium in urine of rats after peroral administration of 3.40 uM/Kg of drug; assay type: ADME, organism-based; conditions: in vivo, po
Rattus norvegicus [16] = experiment: Tested for the diuretic activity by measuring the urinary volume after peroral administering 0 uM/Kg of drug in rats; assay type: ADME, organism-based, Urine; conditions: in vivo, po
Rattus norvegicus [17] = experiment: Tested for the diuretic activity by measuring the urinary volume after peroral administering 1.01 uM/Kg of drug in rats; assay type: ADME, organism-based, Urine; conditions: in vivo, po
Canis familiaris [18] = experiment: Tested for the diuretic activity by measuring the urinary volume after peroral administering 10.1 uM/Kg of drug in dogs; assay type: ADME, organism-based, Canis lupus familiaris, Urine; conditions: dog, in vivo, po
Rattus norvegicus [19] = experiment: Tested for the diuretic activity by measuring the urinary volume after peroral administering 10.1 uM/Kg of drug in rats; assay type: ADME, organism-based, Urine; conditions: in vivo, po
Rattus norvegicus [20] = experiment: Tested for the diuretic activity by measuring the urinary volume after peroral administering 3.40 uM/Kg of drug in rats; assay type: ADME, organism-based, Urine; conditions: in vivo, po
Canis familiaris [21] = experiment: Tested for the diuretic activity by measuring the urinary volume after peroral administering 3.40 uM/Kg of drug in dogs; assay type: ADME, organism-based, Canis lupus familiaris, Urine; conditions: dog, in vivo, po
Canis familiaris [22] = species: Canis familiaris; conditions: dog, in vivo, po
Description: Total electrolytic excretion of potassium in urine of dogs after peroral administration of 10.1 uM/Kg of drug

Rattus norvegicus [23] = species: Rattus norvegicus; conditions: in vivo, po
Description: Total electrolytic excretion of potassium in urine of rats after peroral administration of 10.1 uM/Kg of drug

Canis familiaris [24] = experiment: Total electrolytic excretion of potassium in urine of dogs after intravenous administration of 2.49 uM/Kg of drug; assay type: ADME, organism-based, Canis lupus familiaris; conditions: dog, in vivo
Rattus norvegicus [25] = experiment: Total electrolytic excretion of chlorine in urine of rats after peroral administration of 249 uM/Kg of drug; assay type: ADME, organism-based; conditions: in vivo, po
Rattus norvegicus [26] = experiment: Total electrolytic excretion of chlorine in urine of rats after peroral administration of 74.8 uM/Kg of drug; assay type: ADME, organism-based; conditions: in vivo, po
Rattus norvegicus [27] = experiment: Total electrolytic excretion of chlorine in urine of rats after peroral administration of 24.9 uM/Kg of drug; assay type: ADME, organism-based; conditions: in vivo, po
Canis familiaris [28] = experiment: Total electrolytic excretion of chlorine in urine of dogs after intravenous administration of 2.49 uM/Kg of drug; assay type: ADME, organism-based, Canis lupus familiaris; conditions: dog, in vivo
Canis familiaris [29] = experiment: Total electrolytic excretion of sodium in urine of dogs after intravenous administration of 2.49 uM/Kg of drug; assay type: ADME, organism-based, Canis lupus familiaris; conditions: dog, in vivo
Rattus norvegicus [30] = experiment: Total electrolytic excretion of potassium in urine of rats after peroral administration of 24.9 uM/Kg of drug; assay type: ADME, organism-based; conditions: in vivo, po
Rattus norvegicus [31] = experiment: Total electrolytic excretion of potassium in urine of rats after peroral administration of 249 uM/Kg of drug; assay type: ADME, organism-based; conditions: in vivo, po
Rattus norvegicus [32] = experiment: Tested for the diuretic activity by measuring the urinary volume after peroral administering 74.8 uM/Kg of drug in rats; assay type: ADME, organism-based, Urine; conditions: in vivo, po
Rattus norvegicus [33] = experiment: Total electrolytic excretion of sodium in urine of rats after peroral administration of 24.9 uM/Kg of drug; assay type: ADME, organism-based; conditions: in vivo, po
Rattus norvegicus [34] = experiment: Total electrolytic excretion of sodium in urine of rats after peroral administration of 249 uM/Kg of drug; assay type: ADME, organism-based; conditions: in vivo, po
Rattus norvegicus [35] = experiment: Total electrolytic excretion of sodium in urine of rats after peroral administration of 74.8 uM/Kg of drug; assay type: ADME, organism-based; conditions: in vivo, po
Rattus norvegicus [36] = experiment: Tested for the diuretic activity by measuring the urinary volume after peroral administering 24.9 uM/Kg of drug in rats; assay type: ADME, organism-based, Urine; conditions: in vivo, po
Canis familiaris [37] = experiment: Tested for the diuretic activity by measuring the urinary volume after intravenous administering 2.49 uM/Kg of drug in dogs; assay type: ADME, organism-based, Canis lupus familiaris, Urine; conditions: dog, in vivo
Rattus norvegicus [38] = experiment: Tested for the diuretic activity by measuring the urinary volume after peroral administering 249 uM/Kg of drug in rats; assay type: ADME, organism-based, Urine; conditions: in vivo, po
Rattus norvegicus [39] = experiment: Ratio of Total electrolytic excretion of sodium and potassium in urine of rats after peroral administration of 24.9 uM/Kg of drug; assay type: ADME, organism-based; conditions: in vivo, po
Rattus norvegicus [40] = experiment: Ratio of Total electrolytic excretion of sodium and potassium in urine of rats after peroral administration of 249 uM/Kg of drug; assay type: ADME, organism-based; conditions: in vivo, po
Rattus norvegicus [41] = experiment: Ratio of Total electrolytic excretion of sodium and potassium in urine of rats after intravenous administration of 2.49 uM/Kg of drug; assay type: ADME, organism-based; conditions: in vivo
Rattus norvegicus [42] = experiment: Ratio of Total electrolytic excretion of sodium and potassium in urine of rats after peroral administration of 74.8 uM/Kg of drug; assay type: ADME, organism-based; conditions: in vivo, po
Rattus norvegicus [43] = experiment: Total electrolytic excretion of potassium in urine of rats after peroral administration of 74.8 uM/Kg of drug; assay type: ADME, organism-based; conditions: in vivo, po

For `NS(=O)(=O)c1cc2c(cc1Cl)NCNS2(=O)=O` [HYDROCHLOROTHIAZIDE], the “Excretion K+” value (Canis familiaris [1]) was 3.3 m equiv, the “Excretion K+” value (Rattus norvegicus [2]) was 0.27 m equiv and the “Excretion K+” value (Rattus norvegicus [3]) was 0.32 m equiv. The “Excretion Cl-” value (Rattus norvegicus [4]) was 1.91 m equiv, the “Excretion Cl-” value (Rattus norvegicus [5]) was 0.8 m equiv and the “Excretion Na+” value (Canis familiaris [6]) was 16.1 m equiv. The “Excretion Na+” value (Rattus norvegicus [7]) was 0.82 m equiv, the “Excretion Na+” value (Rattus norvegicus [8]) was 1.36 m equiv and the “Excretion K+” value (Rattus norvegicus [9]) was 0.4 m equiv. The “Excretion Cl-” value (Canis familiaris [10]) was 17.3 m equiv, the “Excretion K+” value (Rattus norvegicus [11]) was 0.39 m equiv and the “Excretion Cl-” value (Rattus norvegicus [12]) was 2.17 m equiv. For the same compound, the V (Rattus norvegicus [13]) was 11.3 mL, the “Excretion Na+” value (Rattus norvegicus [14]) was 2.03 m equiv and the “Excretion Na+” value (Rattus norvegicus [15]) was 1.79 m equiv. The V (Rattus norvegicus [16]) was 4.4 mL, the V (Rattus norvegicus [17]) was 6.8 mL and the V (Canis familiaris [18]) was 85 mL. For the same compound, the V (Rattus norvegicus [19]) was 10.2 mL, the V (Rattus norvegicus [20]) was 10 mL and the V (Canis familiaris [21]) was 76 mL. The “Excretion K+” value (Canis familiaris [22]) was 3.4 m equiv and the “Excretion K+” value (Rattus norvegicus [23]) was 0.37 m equiv.

`CCOC(=O)N1CCN(/C(=N\C2CCCCC2)NC2CCCCC2)CC1` was tested, and the “Excretion K+” value (Canis familiaris [24]) was 2 m equiv, the “Excretion Cl-” value (Rattus norvegicus [25]) was 1.7 m equiv and the “Excretion Cl-” value (Rattus norvegicus [26]) was 1.38 m equiv. The “Excretion Cl-” value (Rattus norvegicus [27]) was 0.98 m equiv, the “Excretion Cl-” value (Canis familiaris [28]) was 5.4 m equiv and the “Excretion Na+” value (Canis familiaris [29]) was 8.3 m equiv. The “Excretion K+” value (Rattus norvegicus [30]) was 0.29 m equiv, the “Excretion K+” value (Rattus norvegicus [31]) was 0.42 m equiv and the V (Rattus norvegicus [32]) was 8.3 mL. For the same compound, the “Excretion Na+” value (Rattus norvegicus [33]) was 0.87 m equiv, the “Excretion Na+” value (Rattus norvegicus [34]) was 1.67 m equiv and the “Excretion Na+” value (Rattus norvegicus [35]) was 1.35 m equiv. It also gave a V (Rattus norvegicus [36]) of 5.3 mL, a V (Canis familiaris [37]) of 51 mL and a V (Rattus norvegicus [38]) of 10.8 mL. The Ratio (Rattus norvegicus [39]) was 3, the Ratio (Rattus norvegicus [40]) was 4 and the Ratio (Rattus norvegicus [41]) was 4.8. The Ratio (Rattus norvegicus [42]) was 4.1 and the “Excretion K+” value (Rattus norvegicus [43]) was 0.33 m equiv.
